{"source": "patent US9199943B2", "about": "“2-(poly-substituted aryl)-6-amino-5-halo-4-pyrimidinecarboxylic acids and their use as herbicides” (Dow AgroSciences, LLC., priority 2006, dated 2015)", "key": {"[1]": {"system": "ABUTH = velvetleaf (Abutilon theophrasti)", "assay": "General postemergence herbicidal activity, velvetleaf", "format": "in vivo", "conditions": "Abutilon theophrasti, post-emergence, 336 h; post-emergent, 140 g ai/ha, visual score after 14 days (0 no injury, 100 complete kill)", "description": "(§1) Seeds or nutlets of the desired test plant species were planted in Sun Gro MetroMix® 306 planting mixture, which typically has a pH of 6.0 to 6.8 and an organic matter content of about 30 percent, in plastic pots with a surface area of 64 square centimeters. When required to ensure good germination and healthy plants, a fungicide treatment and/or other chemical or physical treatment was applied. The plants were grown for 7-21 days in a greenhouse with an approximate 15 hour photoperiod which was maintained at about 23-29° C. during the day and 22-28° C. during the night. Nutrients and water were added on a regular basis and supplemental lighting was provided with overhead metal halide 1000-Watt lamps as necessary. The plants were employed for testing when they reached the first or second true leaf stage.\n(§2) A weighed amount, determined by the highest rate to be tested, of each test compound was placed in a 25 mL glass vial and was dissolved in 4 mL of a 97:3 v/v (volume/volume) mixture of acetone and dimethyl sulfoxide (DMSO) to obtain concentrated stock solutions. […] The concentrated stock solutions obtained were diluted with 20 mL of an aqueous mixture containing acetone, water, isopropyl alcohol, DMSO, Atplus 411F crop oil concentrate, and Triton X-155 surfactant in a 48.5:39:10:1.5:1.0:0.02 v/v ratio to obtain spray solutions containing the highest application rates. Additional application rates were obtained by serial dilution of 12 mL of the high rate solution into a solution containing 2 mL of 97:3 v/v (volume/volume) mixture of acetone and dimethyl sulfoxide (DMSO) and 10 mL of an aqueous mixture containing acetone, water, isopropyl alcohol, DMSO, Atplus 411F crop oil concentrate, and Triton X-155 surfactant in a 48.5:39:10:1.5:1.0:0.02 v/v ratio to obtain ½×, ¼×, ⅛× and 1/16× rates of the high rate. Compound requirements are based upon a 12 mL application volume at a rate of 187 L/ha. Formulated compounds were applied to the plant material with an overhead Mandel track sprayer equipped with a 8002E nozzles calibrated to deliver 187 L/ha over an application area of 0.503 square meters at a spray height of 18 inches (43 cm) above the average plant canopy height. Control plants were sprayed in the same manner with the solvent blank.\n(§3) The treated plants and control plants were placed in a greenhouse as described above and watered by sub-irrigation to prevent wash-off of the test compounds. After 14 days, the condition of the test plants as compared with that of the untreated plants was determined visually and scored on a scale of 0 to 100 percent where 0 corresponds to no injury and 100 corresponds to complete kill.\n(§4) By applying the well-accepted probit analysis as described by J. Berkson in Journal of the […], 48, 565 (1953) and by D. Finney in “Probit Analysis” Cambridge University Press (1952), the above data can be used to calculate GR50 and GR80 values, which are defined as growth reduction factors that correspond to the effective dose of herbicide required to kill or control 50 percent or 80 percent, respectively, of a target plant."}, "[2]": {"system": "CHEAL = lambsquarter (Chenopodium album)", "assay": "General postemergence herbicidal activity, lambsquarter", "format": "in vivo", "conditions": "Chenopodium album, post-emergence, 336 h; post-emergent, 140 g ai/ha, visual score after 14 days (0 no injury, 100 complete kill)", "description": "as §1, §2, §3, §4"}, "[3]": {"system": "CHEAL = lambsquarter (Chenopodium album)", "assay": "General preemergence herbicidal activity, lambsquarter", "format": "in vivo", "conditions": "Chenopodium album, pre-emergence, 480 h; pre-emergent, 280 g ai/ha, visual score after 20-22 days", "text": "(§5) Seeds of the desired test plant species were planted in a soil matrix prepared by mixing a loam soil (43 percent silt, 19 percent clay, and 38 percent sand, with a pH of about 8.1 and an organic matter content of about 1.5 percent) and sand in a 70 to 30 ratio. The soil matrix was contained in plastic pots with a surface area of 113 square centimeters. When required to ensure good germination and healthy plants, a fungicide treatment and/or other chemical or physical treatment was applied. A weighed amount, determined by the highest rate to be tested, of each test compound was placed in a 25 mL glass vial and was dissolved in 6 mL of a 97:3 v/v (volume/volume) mixture of acetone and DMSO to obtain concentrated stock solutions. […] The stock solutions obtained were diluted with 18 mL of a 0.1% v/v aqueous solution of Tween® 20 surfactant to obtain spray solutions containing the highest application rate. Additional application rates were obtained by serial dilution of 12 mL of the high rate solution into a solution containing 3 mL of 97:3 v/v mixture of acetone and DMSO and 9 mL of the 0.1% v/v aqueous solution of Tween® 20 surfactant to obtain 1⁄2×, 1⁄4×, 1⁄8× and 1/16× rates of the high rate. Compound requirements are based upon a 12 mL application volume at a rate of 187 L/ha. Formulated compounds were applied to the plant material with an overhead Mandel track sprayer equipped with a […] nozzles calibrated to deliver 187 L/ha over an application area of 0.503 square meters at a spray height of 18 inches (43 cm) above the soil surface. Control plants were sprayed in the same manner with the solvent blank. The treated pots and control pots were placed in a greenhouse maintained with an approximate 15 hour photoperiod and temperatures of about 23-29° C. during the day and 22-28° C. during the night. Nutrients and water were added on a regular basis and supplemental lighting was provided with overhead metal halide 1000-Watt lamps as necessary. The water was added by top-irrigation. After 20-22 days, the condition of the test plants that germinated and grew as compared with that of the untreated plants that emerged and grew was determined visually and scored on a scale of 0 to 100 percent where 0 corresponds to no injury and 100 corresponds to complete kill or no emergence."}, "[4]": {"system": "HELAN = sunflower (Helianthus annuus)", "assay": "General preemergence herbicidal activity, sunflower", "format": "in vivo", "conditions": "Helianthus annuus, pre-emergence, 480 h; pre-emergent, 280 g ai/ha, visual score after 20-22 days", "text": "as §5"}, "[5]": {"system": "ABUTH = velvetleaf (Abutilon theophrasti)", "assay": "General preemergence herbicidal activity, velvetleaf", "format": "in vivo", "conditions": "Abutilon theophrasti, pre-emergence, 480 h; pre-emergent, 280 g ai/ha, visual score after 20-22 days", "text": "as §5"}, "[6]": {"system": "HELAN = sunflower (Helainthus annuus)", "assay": "General postemergence herbicidal activity, sunflower", "format": "in vivo", "conditions": "post-emergence, 336 h; post-emergent, 140 g ai/ha, visual score after 14 days (0 no injury, 100 complete kill)", "description": "as §1, §2, §3, §4"}}}
{"smiles": "CCOc1c(Cl)ccc(-c2nc(N)c(Cl)c(C(=O)O)n2)c1F", "note": "[Compound 19, 6-Amino-5-chloro-2-(4-chloro-3-ethoxy-2-fluorophenyl)pyrimidine-4-carboxylic acid]", "values": [{"measurement": "pest or weed control at 140 g/ha", "setting": "[1]", "result": 95, "unit": "%"}, {"measurement": "pest or weed control at 140 g/ha", "setting": "[2]", "result": 90, "unit": "%"}, {"measurement": "melting point", "result": "132 to 134", "unit": "°C"}, {"measurement": "pest or weed control at 280 g/ha", "setting": "[3]", "result": 75, "unit": "%"}, {"measurement": "pest or weed control at 280 g/ha", "setting": "[4]", "result": 90, "unit": "%"}, {"measurement": "pest or weed control at 280 g/ha", "setting": "[5]", "result": 80, "unit": "%"}, {"measurement": "pest or weed control at 140 g/ha", "setting": "[6]", "result": 95, "unit": "%"}]}
